# Literature values in patent US20040062739A1, “Use of carbohydrates to improve skin barrier function” (SOCIETE L'OREAL S.A., priority 2000, published 2004).
# System: GLY-06
# Parameters: key: −: no activity; ε, +, ++: specific activity; ε, +, ++: specific activity; ε, +, ++: specific activity
# Settings: glycosidase sold by Clonezyme; cited from earlier work
row,Compound,substrate specificity GLY-06
1,CC(=O)NC1C(O)CC(Oc2ccc([N+](=O)[O-])cc2)(C(=O)O)OC1C(O)C(O)CO [α-D-N-acetylneuramide],−
2,OC[C@H]1O[C@H](O)[C@H](O)[C@@H](O)[C@H]1O [α-D-galactose],−
3,OC[C@H]1O[C@H](O)[C@H](O)[C@@H](O)[C@@H]1O [α-D-glucose],++
4,OC[C@H]1O[C@H](O)[C@@H](O)[C@@H](O)[C@@H]1O [α-D-mannose],−
5,C[C@@H]1O[C@@H](O)[C@@H](O)[C@H](O)[C@@H]1O [α-L-fucose],−
6,C[C@@H]1O[C@@H](O)[C@H](O)[C@H](O)[C@H]1O [α-L-rhamnose],−
7,CC(=O)NC1C(OC2C(CO)OC(Oc3ccc([N+](=O)[O-])cc3)C(NC(C)=O)C2O)OC(CO)C(O)C1O [β-D-N-acetylch obloside],−
8,OC[C@H]1O[C@H](O[C@H]2[C@H](O)[C@@H](O)[C@H](O)O[C@@H]2CO)[C@H](O)[C@@H](O)[C@@H]1O [β-D-cellobiose],+

# System: GLY-10
# Parameters: key: −: no activity; ε, +, ++: specific activity; ε, +, ++: specific activity; ε, +, ++: specific activity
# Settings: glycosidase sold by Clonezyme; cited from earlier work
row,Compound,substrate specificity GLY-10
1,CC(=O)NC1C(O)CC(Oc2ccc([N+](=O)[O-])cc2)(C(=O)O)OC1C(O)C(O)CO [α-D-N-acetylneuramide],−
2,OC[C@H]1O[C@H](O)[C@H](O)[C@@H](O)[C@H]1O [α-D-galactose],+
3,OC[C@H]1O[C@H](O)[C@H](O)[C@@H](O)[C@@H]1O [α-D-glucose],−
4,OC[C@H]1O[C@H](O)[C@@H](O)[C@@H](O)[C@@H]1O [α-D-mannose],−
5,C[C@@H]1O[C@@H](O)[C@@H](O)[C@H](O)[C@@H]1O [α-L-fucose],−
6,C[C@@H]1O[C@@H](O)[C@H](O)[C@H](O)[C@H]1O [α-L-rhamnose],−
7,CC(=O)NC1C(OC2C(CO)OC(Oc3ccc([N+](=O)[O-])cc3)C(NC(C)=O)C2O)OC(CO)C(O)C1O [β-D-N-acetylch obloside],−
8,OC[C@H]1O[C@H](O[C@H]2[C@H](O)[C@@H](O)[C@H](O)O[C@@H]2CO)[C@H](O)[C@@H](O)[C@@H]1O [β-D-cellobiose],−

# System: GLY-03
# Parameters: key: −: no activity; ε, +, ++: specific activity; ε, +, ++: specific activity; ε, +, ++: specific activity
# Settings: glycosidase sold by Clonezyme; cited from earlier work
row,Compound,substrate specificity GLY-03
1,CC(=O)NC1C(O)CC(Oc2ccc([N+](=O)[O-])cc2)(C(=O)O)OC1C(O)C(O)CO [α-D-N-acetylneuramide],−
2,OC[C@H]1O[C@H](O)[C@H](O)[C@@H](O)[C@H]1O [α-D-galactose],−
3,OC[C@H]1O[C@H](O)[C@H](O)[C@@H](O)[C@@H]1O [α-D-glucose],++
4,OC[C@H]1O[C@H](O)[C@@H](O)[C@@H](O)[C@@H]1O [α-D-mannose],−
5,C[C@@H]1O[C@@H](O)[C@@H](O)[C@H](O)[C@@H]1O [α-L-fucose],−
6,C[C@@H]1O[C@@H](O)[C@H](O)[C@H](O)[C@H]1O [α-L-rhamnose],−
7,CC(=O)NC1C(OC2C(CO)OC(Oc3ccc([N+](=O)[O-])cc3)C(NC(C)=O)C2O)OC(CO)C(O)C1O [β-D-N-acetylch obloside],−
8,OC[C@H]1O[C@H](O[C@H]2[C@H](O)[C@@H](O)[C@H](O)O[C@@H]2CO)[C@H](O)[C@@H](O)[C@@H]1O [β-D-cellobiose],ε

# System: GLY-01
# Parameters: key: −: no activity; ε, +, ++: specific activity; ε, +, ++: specific activity; ε, +, ++: specific activity
# Settings: glycosidase sold by Clonezyme; cited from earlier work
row,Compound,substrate specificity GLY-01
1,CC(=O)NC1C(O)CC(Oc2ccc([N+](=O)[O-])cc2)(C(=O)O)OC1C(O)C(O)CO [α-D-N-acetylneuramide],−
2,OC[C@H]1O[C@H](O)[C@H](O)[C@@H](O)[C@H]1O [α-D-galactose],−
3,OC[C@H]1O[C@H](O)[C@H](O)[C@@H](O)[C@@H]1O [α-D-glucose],++
4,OC[C@H]1O[C@H](O)[C@@H](O)[C@@H](O)[C@@H]1O [α-D-mannose],−
5,C[C@@H]1O[C@@H](O)[C@@H](O)[C@H](O)[C@@H]1O [α-L-fucose],−
6,C[C@@H]1O[C@@H](O)[C@H](O)[C@H](O)[C@H]1O [α-L-rhamnose],−
7,CC(=O)NC1C(OC2C(CO)OC(Oc3ccc([N+](=O)[O-])cc3)C(NC(C)=O)C2O)OC(CO)C(O)C1O [β-D-N-acetylch obloside],−
8,OC[C@H]1O[C@H](O[C@H]2[C@H](O)[C@@H](O)[C@H](O)O[C@@H]2CO)[C@H](O)[C@@H](O)[C@@H]1O [β-D-cellobiose],−

# System: GLY-09
# Parameters: key: −: no activity; ε, +, ++: specific activity; ε, +, ++: specific activity; ε, +, ++: specific activity
# Settings: glycosidase sold by Clonezyme; cited from earlier work
row,Compound,substrate specificity GLY-09
1,CC(=O)NC1C(O)CC(Oc2ccc([N+](=O)[O-])cc2)(C(=O)O)OC1C(O)C(O)CO [α-D-N-acetylneuramide],−
2,OC[C@H]1O[C@H](O)[C@H](O)[C@@H](O)[C@H]1O [α-D-galactose],−
3,OC[C@H]1O[C@H](O)[C@H](O)[C@@H](O)[C@@H]1O [α-D-glucose],++
4,OC[C@H]1O[C@H](O)[C@@H](O)[C@@H](O)[C@@H]1O [α-D-mannose],−
5,C[C@@H]1O[C@@H](O)[C@@H](O)[C@H](O)[C@@H]1O [α-L-fucose],−
6,C[C@@H]1O[C@@H](O)[C@H](O)[C@H](O)[C@H]1O [α-L-rhamnose],−
7,CC(=O)NC1C(OC2C(CO)OC(Oc3ccc([N+](=O)[O-])cc3)C(NC(C)=O)C2O)OC(CO)C(O)C1O [β-D-N-acetylch obloside],−
8,OC[C@H]1O[C@H](O[C@H]2[C@H](O)[C@@H](O)[C@H](O)O[C@@H]2CO)[C@H](O)[C@@H](O)[C@@H]1O [β-D-cellobiose],ε

# System: GLY-04
# Parameters: key: −: no activity; ε, +, ++: specific activity; ε, +, ++: specific activity; ε, +, ++: specific activity
# Settings: glycosidase sold by Clonezyme; cited from earlier work
row,Compound,substrate specificity GLY-04
1,CC(=O)NC1C(O)CC(Oc2ccc([N+](=O)[O-])cc2)(C(=O)O)OC1C(O)C(O)CO [α-D-N-acetylneuramide],−
2,OC[C@H]1O[C@H](O)[C@H](O)[C@@H](O)[C@H]1O [α-D-galactose],−
3,OC[C@H]1O[C@H](O)[C@H](O)[C@@H](O)[C@@H]1O [α-D-glucose],++
4,OC[C@H]1O[C@H](O)[C@@H](O)[C@@H](O)[C@@H]1O [α-D-mannose],−
5,C[C@@H]1O[C@@H](O)[C@@H](O)[C@H](O)[C@@H]1O [α-L-fucose],−
6,C[C@@H]1O[C@@H](O)[C@H](O)[C@H](O)[C@H]1O [α-L-rhamnose],−
7,CC(=O)NC1C(OC2C(CO)OC(Oc3ccc([N+](=O)[O-])cc3)C(NC(C)=O)C2O)OC(CO)C(O)C1O [β-D-N-acetylch obloside],−
8,OC[C@H]1O[C@H](O[C@H]2[C@H](O)[C@@H](O)[C@H](O)O[C@@H]2CO)[C@H](O)[C@@H](O)[C@@H]1O [β-D-cellobiose],ε

# System: GLY-02
# Parameters: key: −: no activity; ε, +, ++: specific activity; ε, +, ++: specific activity; ε, +, ++: specific activity
# Settings: glycosidase sold by Clonezyme; cited from earlier work
row,Compound,substrate specificity GLY-02
1,CC(=O)NC1C(O)CC(Oc2ccc([N+](=O)[O-])cc2)(C(=O)O)OC1C(O)C(O)CO [α-D-N-acetylneuramide],−
2,OC[C@H]1O[C@H](O)[C@H](O)[C@@H](O)[C@H]1O [α-D-galactose],−
3,OC[C@H]1O[C@H](O)[C@H](O)[C@@H](O)[C@@H]1O [α-D-glucose],++
4,OC[C@H]1O[C@H](O)[C@@H](O)[C@@H](O)[C@@H]1O [α-D-mannose],−
5,C[C@@H]1O[C@@H](O)[C@@H](O)[C@H](O)[C@@H]1O [α-L-fucose],−
6,C[C@@H]1O[C@@H](O)[C@H](O)[C@H](O)[C@H]1O [α-L-rhamnose],−
7,CC(=O)NC1C(OC2C(CO)OC(Oc3ccc([N+](=O)[O-])cc3)C(NC(C)=O)C2O)OC(CO)C(O)C1O [β-D-N-acetylch obloside],−
8,OC[C@H]1O[C@H](O[C@H]2[C@H](O)[C@@H](O)[C@H](O)O[C@@H]2CO)[C@H](O)[C@@H](O)[C@@H]1O [β-D-cellobiose],++

# System: GLY-05
# Parameters: key: −: no activity; ε, +, ++: specific activity; ε, +, ++: specific activity; ε, +, ++: specific activity
# Settings: glycosidase sold by Clonezyme; cited from earlier work
row,Compound,substrate specificity GLY-05
1,CC(=O)NC1C(O)CC(Oc2ccc([N+](=O)[O-])cc2)(C(=O)O)OC1C(O)C(O)CO [α-D-N-acetylneuramide],−
2,OC[C@H]1O[C@H](O)[C@H](O)[C@@H](O)[C@H]1O [α-D-galactose],−
3,OC[C@H]1O[C@H](O)[C@H](O)[C@@H](O)[C@@H]1O [α-D-glucose],++
4,OC[C@H]1O[C@H](O)[C@@H](O)[C@@H](O)[C@@H]1O [α-D-mannose],−
5,C[C@@H]1O[C@@H](O)[C@@H](O)[C@H](O)[C@@H]1O [α-L-fucose],−
6,C[C@@H]1O[C@@H](O)[C@H](O)[C@H](O)[C@H]1O [α-L-rhamnose],−
7,CC(=O)NC1C(OC2C(CO)OC(Oc3ccc([N+](=O)[O-])cc3)C(NC(C)=O)C2O)OC(CO)C(O)C1O [β-D-N-acetylch obloside],−

# System: GLY-07
# Parameters: key: −: no activity; ε, +, ++: specific activity; ε, +, ++: specific activity; ε, +, ++: specific activity
# Settings: glycosidase sold by Clonezyme; cited from earlier work
row,Compound,substrate specificity GLY-07
1,CC(=O)NC1C(O)CC(Oc2ccc([N+](=O)[O-])cc2)(C(=O)O)OC1C(O)C(O)CO [α-D-N-acetylneuramide],−
2,OC[C@H]1O[C@H](O)[C@H](O)[C@@H](O)[C@H]1O [α-D-galactose],−
3,OC[C@H]1O[C@H](O)[C@H](O)[C@@H](O)[C@@H]1O [α-D-glucose],++
4,OC[C@H]1O[C@H](O)[C@@H](O)[C@@H](O)[C@@H]1O [α-D-mannose],−
5,C[C@@H]1O[C@@H](O)[C@@H](O)[C@H](O)[C@@H]1O [α-L-fucose],−
6,C[C@@H]1O[C@@H](O)[C@H](O)[C@H](O)[C@H]1O [α-L-rhamnose],−
7,CC(=O)NC1C(OC2C(CO)OC(Oc3ccc([N+](=O)[O-])cc3)C(NC(C)=O)C2O)OC(CO)C(O)C1O [β-D-N-acetylch obloside],−
8,OC[C@H]1O[C@H](O[C@H]2[C@H](O)[C@@H](O)[C@H](O)O[C@@H]2CO)[C@H](O)[C@@H](O)[C@@H]1O [β-D-cellobiose],+

# System: GLY-08
# Parameters: key: −: no activity; ε, +, ++: specific activity; ε, +, ++: specific activity; ε, +, ++: specific activity
# Settings: glycosidase sold by Clonezyme; cited from earlier work
row,Compound,substrate specificity GLY-08
1,CC(=O)NC1C(O)CC(Oc2ccc([N+](=O)[O-])cc2)(C(=O)O)OC1C(O)C(O)CO [α-D-N-acetylneuramide],−
2,OC[C@H]1O[C@H](O)[C@H](O)[C@@H](O)[C@H]1O [α-D-galactose],−
3,OC[C@H]1O[C@H](O)[C@H](O)[C@@H](O)[C@@H]1O [α-D-glucose],++
4,OC[C@H]1O[C@H](O)[C@@H](O)[C@@H](O)[C@@H]1O [α-D-mannose],−
5,C[C@@H]1O[C@@H](O)[C@@H](O)[C@H](O)[C@@H]1O [α-L-fucose],−
6,C[C@@H]1O[C@@H](O)[C@H](O)[C@H](O)[C@H]1O [α-L-rhamnose],−
7,CC(=O)NC1C(OC2C(CO)OC(Oc3ccc([N+](=O)[O-])cc3)C(NC(C)=O)C2O)OC(CO)C(O)C1O [β-D-N-acetylch obloside],−
8,OC[C@H]1O[C@H](O[C@H]2[C@H](O)[C@@H](O)[C@H](O)O[C@@H]2CO)[C@H](O)[C@@H](O)[C@@H]1O [β-D-cellobiose],ε
